Here are results for one compound from US20030157186A1, “Method for maintaining or improving the synthesis of mucins” (priority 2003, published 2003).

The assay concerns HT29-MTX cells. The experiment in a line: Fractional synthesis rate of mucoproteins in vitro (3H-threonine incorporation). To be noted: for mucoprotein FSR: day 7 to 21, mean±SEM, n=6. The format is cell-based, human. On the procedure: The effect of threonine supplementation on the mucin synthesis rate was analyzed in vitro in HT29-MTX cells (human colonic carcinoma cells). HT29-MIX cells were grown in normal Dulbecco's modified minimum essential medium (DMEM) supplemented with 10% (v/v) heat-inactivated fetal bovine serum (Life Technologies) and containing 25 mM glucose, 1% non-essential amino acids (Life Technologies), 2 mM glutamine (AJINOMOTO CO), 85 mg/L penicillin-streptomycin, 50 mg/L gentamicin, and 1.5 mg/L Amphotericin B (Life Technologies). Cells were cultured at 37° C. in an atmosphere containing 10% CO2:90% air. The culture medium was changed daily. Experiments were carried out in T75 cm^2 culture flasks between passages 10 to 20. Studies were performed in the late post-confluent period (21 days after seeding), when all cells display a mucin-secreting phenotype. For the experiment, cells were grown in the normal DMEM until confluency (7 days after seeding). Then from day 7 to day 21 after seeding, several concentrations of threonine in the DMEM were tested, namely, 0.2 mM, 0.4 mM, 0.8 mM and 1.6 mM. At day 20, L-(3-^3H) threonine (30 microCi/Flask) was added to a fresh 10 mL culture medium. The incorporation of the radioactive tracer to newly synthesized mucoproteins was determined for the following 24 hour period. After 24 hours of metabolic labeling, the culture medium of cells was removed. […] An aliquot of each homogenate was removed for the measurement of the specific radioactivity of the intracellular free threonine considered as the precursor pool. […] Purified mucins were hydrolyzed with 6M HCl (24 h at 100° C.), and their amino acid composition was determined by HPLC. […] The fractional synthesis rate (FSR) of mucoproteins was calculated and expressed in percent/day (%/d): (FSR=(Specific radioactivity of mucoprotein bound threonine/Specific radioactivity of intracellular free threonine)*100). […] The mucoprotein FSR was determined for each of the varying concentrations of threonine (mM) in the culture medium of HT29-MTX cells as further shown in FIG. 1.

Regarding `C[C@@H](O)[C@H](N)C(=O)O` [threonine], the “mucoprotein FSR” value (0.2 mM threonine in culture medium) was found to be 26.4±1.4% and the “mucoprotein FSR” value (0.8 mM threonine in culture medium) was found to be 37.3±1.4%. In addition, where the note is “0.2 to 1.6 mM tested”, the “threonine concentration at which mucoprotein FSR reached a plateau” value was “about 0.8 mM”.
